In the experiment the target is T1, GABAB receptor (Rattus norvegicus, UniProt O88871+Q9Z0U4).
T1 construct: from tissue; host or cells: rat brain cortex membranes
The experiment can be described thus: In vitro [35S]GTPγS binding assay in rat cortical membranes. Type of experiment: biochemical. As to conditions: PAM EC50, [35S]GTPγS binding, read-out: In vitro PAM potency. The procedure:
In Vitro [^35S]GTPγS Binding Assay in Rat Cortical Membranes
Cortices of freshly harvested rat brains were dissected on an ice-cold surface and homogenized by a glass Dounce homogeniser immediately in ice-cold buffer containing 50 mM Tris, 5 mM MgCl2 and 1 mM EDTA (pH=7.6). Tissue homogenates were centrifuged at 40000 g for 15 min at 4° C. Membrane pellets were resuspended in the same buffer and membranes were incubated for 10 min at 30° C. in a shaking water bath to eliminate endogenous GABA. Homogenates were centrifuged again under the same conditions. The final pellets were resuspended in ice-cold buffer (pH=7.6) containing 50 mM Tris, 100 mM NaCl, 7 mM MgCl2, 1 mM EDTA and 1 mM dithiotreithol (DTT) to yield a concentration of 20 mg tissue weight/ml and frozen at −70° C. until use. The assay was done in a buffer containing 50 mM Tris (pH=7.4), 100 mM NaCl, 7 mM MgCl2, 1 mM EDTA and 1 mM DTT. Each assay tube contained 150 μL GDP (in a final concentration of 50 μM), 100 μL ligand and 125 μL of the membrane suspension ([…]). The assay tubes were preincubated for 10 min at 30° C. to assure equilibrium. Nonspecific binding was determined in the presence of 10 μM GTPγS; basal binding was determined in the presence of buffer only. After addition of […] [^35S]GTPγS in a volume of 25 μL to the tubes, membranes were incubated for an additional 60 min at 30° C. The assay was terminated by rapid filtration through Packard UniFilter GF/B using a Packard harvester and washed four times with 1 ml ice-cold buffer. After drying the filters at 40° C. for 1 h, 40 μL Microscint (Packard) was added to the filters and radioactivity of the filters was determined by a TopCount NXT (PerkinElmer, Waltham, MA; Alper and Nelson, Eur. J. Pharmacol. 1998, 343, 303-312; Rinken et al, Biochem. Pharmacol. 1999, 57, 155-162). Data thus gathered were used to determine PAM EC50 values for each compound as primary in vitro activity end point.
In Table 1 compounds of this invention measured in the [^35S]GTPγS binding assay are listed.
In general terms: Binding of GTPγS marks nucleotide exchange on a G protein.

Where a name gives a salt, the structure may show the parent alone.

T1 sequence (O88871 41-940): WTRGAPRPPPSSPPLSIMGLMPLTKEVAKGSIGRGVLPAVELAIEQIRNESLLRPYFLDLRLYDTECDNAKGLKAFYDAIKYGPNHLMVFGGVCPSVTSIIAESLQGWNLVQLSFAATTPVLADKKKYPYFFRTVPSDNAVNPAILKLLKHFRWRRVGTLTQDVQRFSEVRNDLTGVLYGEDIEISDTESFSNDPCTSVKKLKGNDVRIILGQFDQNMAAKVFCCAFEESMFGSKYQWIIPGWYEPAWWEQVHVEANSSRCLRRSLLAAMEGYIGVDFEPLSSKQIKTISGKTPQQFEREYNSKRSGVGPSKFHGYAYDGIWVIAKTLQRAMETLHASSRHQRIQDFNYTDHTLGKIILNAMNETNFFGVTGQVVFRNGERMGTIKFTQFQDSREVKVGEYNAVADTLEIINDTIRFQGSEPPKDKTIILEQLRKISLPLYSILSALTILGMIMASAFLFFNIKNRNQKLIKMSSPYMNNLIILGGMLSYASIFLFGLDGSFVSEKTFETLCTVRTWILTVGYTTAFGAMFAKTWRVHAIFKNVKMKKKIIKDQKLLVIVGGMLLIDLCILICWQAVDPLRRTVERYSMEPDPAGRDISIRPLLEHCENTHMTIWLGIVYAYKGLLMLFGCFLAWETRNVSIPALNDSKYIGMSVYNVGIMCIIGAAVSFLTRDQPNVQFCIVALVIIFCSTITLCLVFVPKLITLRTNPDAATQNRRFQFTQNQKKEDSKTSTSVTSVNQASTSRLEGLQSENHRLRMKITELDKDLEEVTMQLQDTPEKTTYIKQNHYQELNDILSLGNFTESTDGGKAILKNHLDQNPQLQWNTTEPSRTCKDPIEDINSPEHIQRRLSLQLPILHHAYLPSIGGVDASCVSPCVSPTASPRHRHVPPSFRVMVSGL
T1 sequence (Q9Z0U4 17-960 limits assumed): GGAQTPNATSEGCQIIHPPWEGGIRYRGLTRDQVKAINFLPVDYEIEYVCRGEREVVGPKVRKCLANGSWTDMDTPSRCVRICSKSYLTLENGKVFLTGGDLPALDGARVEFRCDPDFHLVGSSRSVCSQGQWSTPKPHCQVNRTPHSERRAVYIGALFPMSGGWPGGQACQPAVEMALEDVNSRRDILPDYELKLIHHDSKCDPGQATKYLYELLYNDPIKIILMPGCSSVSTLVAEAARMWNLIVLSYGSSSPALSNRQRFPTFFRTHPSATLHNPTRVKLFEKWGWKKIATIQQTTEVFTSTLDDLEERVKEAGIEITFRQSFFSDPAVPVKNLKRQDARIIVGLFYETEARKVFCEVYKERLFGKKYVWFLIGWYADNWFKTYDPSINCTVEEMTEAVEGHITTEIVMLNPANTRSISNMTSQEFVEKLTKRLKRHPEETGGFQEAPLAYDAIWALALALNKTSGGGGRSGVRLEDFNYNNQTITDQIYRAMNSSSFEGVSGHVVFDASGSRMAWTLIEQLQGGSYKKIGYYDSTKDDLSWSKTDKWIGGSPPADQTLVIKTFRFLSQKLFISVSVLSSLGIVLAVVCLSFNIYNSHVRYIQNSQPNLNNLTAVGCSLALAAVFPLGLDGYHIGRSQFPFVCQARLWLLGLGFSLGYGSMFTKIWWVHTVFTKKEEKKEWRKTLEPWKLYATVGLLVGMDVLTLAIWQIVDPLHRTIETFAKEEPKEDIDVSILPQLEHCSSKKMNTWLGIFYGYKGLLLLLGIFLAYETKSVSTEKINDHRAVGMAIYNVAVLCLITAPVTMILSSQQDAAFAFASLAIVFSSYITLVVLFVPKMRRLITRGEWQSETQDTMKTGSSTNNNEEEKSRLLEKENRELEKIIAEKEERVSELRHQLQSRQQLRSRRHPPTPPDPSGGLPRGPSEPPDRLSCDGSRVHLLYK

Consider “2-[(3R)-3-{5,6-dimethyl-2-[trans-4-(trifluoromethyl)cyclohexyl]pyrazolo[1,5-a]pyrimidin-7-yl}-3-methylpiperidin-1-yl]acetic acid hydrochloride [Example 19]”, for which the EC50 was in the range of 0.1 to 1 µM.

For the compound `Cc1cc([C@@H]2CN(C(=O)N(C)C)CC[C@@H]2C)n2nc([C@H]3CC[C@H](C(F)(F)F)CC3)c(F)c2n1` (racemic) [Example 46], the EC50 lay in the range of 0.1 to 1 µM. In the case of `CC(=O)N1CC[C@H](C)[C@H](c2c(C)c(C)nc3cc([C@H]4CC[C@H](C(F)(F)F)CC4)nn23)C1` (racemic) [Example 55] it was 0.1 to 1 µM; in that of `Cc1nc2cc([C@H]3CC[C@H](C(F)(F)F)CC3)nn2c([C@@H]2CN(C)CC[C@@H]2C)c1C` (racemic) [Example 56], 1 to 10 µM.

For `Cc1nc2cc([C@H]3CC[C@H](C(F)(F)F)CC3)nn2c([C@@H]2CN(C(=N)N)CC[C@@H]2C)c1C` (racemic) [Example 57], the EC50 was in the range of 0.1 to 1 µM. As for `COC(=O)N1CC[C@H](C)[C@H](c2cc(C)nc3cc([C@H]4CC[C@H](C(F)(F)F)CC4)nn23)C1` (racemic) [Example 76], the EC50 was in the range of 0.1 to 1 µM.

`Cc1cc([C@H]2CCCN(C=O)[C@H]2C)n2nc([C@H]3CC[C@H](C(F)(F)F)CC3)cc2n1` (racemic) [Example 81]: the EC50 lay in the range of 0.1 to 1 µM. The value for `Cc1cc([C@@H]2CN(S(C)(=O)=O)CC[C@@H]2C)n2nc([C@H]3CC[C@H](C(F)(F)F)CC3)cc2n1` (racemic) [Example 85] was 0.1 to 1 µM; that for `COC(=O)N1CCC[C@H](c2cc(C)nc3cc([C@H]4CC[C@H](C(F)(F)F)CC4)nn23)[C@H]1C` (racemic) [Example 92] was less than 0.1 µM. The value for `Cc1cc([C@H]2C[C@@H](C)CN(C=O)C2)n2nc([C@H]3CC[C@H](C(F)(F)F)CC3)cc2n1` (racemic) [Example 104] was 0.1 to 1 µM. In the case of `COC(=O)N1CC[C@H](C)[C@@H](c2cc(C)nc3cc([C@H]4CC[C@H](C(F)(F)F)CC4)nn23)C1` (racemic) [Example 159] it was 0.1 to 1 µM; in that of `Cc1cc([C@@H]2CN(C=O)CC[C@@H]2C)n2nc([C@H]3CC[C@H](C(F)(F)F)CC3)cc2n1` (racemic) [Example 160], 0.1 to 1 µM; in that of `Cc1cc(C2CCCOC2)n2nc([C@H]3CC[C@H](C(F)(F)F)CC3)cc2n1` (mixture of isomers) [Example 161], 0.1 to 1 µM. `CC(=O)N1CCC(C)C(c2cc(C)nc3c(F)c(C4CCC(C(F)(F)F)CC4)nn23)C1` (single isomer, unassigned) [Example 2]: the EC50 lay in the range of 0.1 to 1 µM. In the case of `CC(=O)N1CC[C@@H](C)[C@@H](c2cc(C)nc3c(F)c([C@H]4CC[C@H](C(F)(F)F)CC4)nn23)C1` (single isomer, unassigned) [Example 3] it was 1 to 10 µM. Take `COC(=O)N1CC[C@H](C)[C@@H](c2cc(C)nc3cc([C@H]4CC[C@H](C(F)(F)F)CC4)nn23)C1` (single isomer, unassigned) [Example 4]: the EC50 lay in the range of 0.1 to 1 µM. In the case of `COC(=O)N1CC[C@H](C)[C@H](c2cc(C)nc3cc([C@H]4CC[C@H](C(F)(F)F)CC4)nn23)C1` (single isomer, unassigned) [Example 6] it was 0.1 to 1 µM. In the case of `COC(=O)N1CC[C@@H](C)[C@@H](c2cc(C)nc3cc([C@H]4CC[C@H](C(F)(F)F)CC4)nn23)C1` (single isomer, unassigned) [Example 7] it was 0.1 to 1 µM. In the case of `Cc1cc([C@@H]2CN(C=O)CC[C@@H]2C)n2nc([C@H]3CC[C@H](C(F)(F)F)CC3)cc2n1` (single isomer, unassigned) [Example 8], the EC50 lay in the range of 1 to 10 µM. The value for `Cc1cc([C@@H]2CN(C=O)C(C)(C)CO2)n2nc([C@H]3CC[C@H](C(F)(F)F)CC3)cc2n1` (single isomer, unassigned) [Example 10] was 1 to 10 µM; that for `COC(=O)N1C[C@@H](c2cc(C)nc3cc([C@H]4CC[C@H](C(F)(F)F)CC4)nn23)OCC1(C)C` (single isomer, unassigned) [Example 12] was 1 to 10 µM. In the case of `Cc1cc([C@H]2CCCOC2)n2nc([C@H]3CC[C@H](C(F)(F)F)CC3)cc2n1` (single isomer, unassigned) [Example 28] it was less than 0.1 µM; in that of `Cc1cc([C@@H]2CCCOC2)n2nc([C@H]3CC[C@H](C(F)(F)F)CC3)cc2n1` (single isomer, unassigned) [Example 29], 0.1 to 1 µM; in that of `COC(=O)N1CC[S+]([O-])C(c2cc(C)nc3cc([C@H]4CC[C@H](C(F)(F)F)CC4)nn23)C1` (stereo partly drawn) [Example 17], 1 to 10 µM. In the case of `Cc1nc2cc([C@H]3CC[C@H](C(F)(F)F)CC3)nn2c([C@]2(C)CCCN(CC#N)C2)c1C` [Example 18, 2-[(3R)-3-{5,6-dimethyl-2-[trans-4-(trifluoromethyl)cyclohexyl]pyrazolo[1,5-a]pyrimidin-7-yl}-3-methylpiperidin-1-yl]acetonitrile hydrochloride] it was 0.1 to 1 µM. Turning to `Cc1nc2cc([C@H]3CC[C@H](C(F)(F)F)CC3)nn2c([C@@H]2CCCN(C(=O)[C@@H](N)CO)C2)c1C` [Example 21, (2S)-2-amino-1-[(3R)-3-{5,6-dimethyl-2-[trans-4-(trifluoromethyl)cyclohexyl]pyrazolo[1,5-a]pyrimidin-7-yl}piperidin-1-yl]-3-hydroxypropan-1-one], the EC50 is 1 to 10 µM. In the case of `Cc1cc([C@@H]2CCCN(C=O)C2)n2nc([C@H]3CC[C@H](C(F)(F)F)CC3)cc2n1` [Example 22, (3R)-3-{5-methyl-2-[trans-4-(trifluoromethyl)cyclohexyl]pyrazolo[1,5-a]pyrimidin-7-yl}piperidine-1-carbaldehyde] it was 0.1 to 1 µM; in that of `Cc1cc([C@@H]2CCCN(C(=N)N)C2)n2nc([C@H]3CC[C@H](C(F)(F)F)CC3)cc2n1` [Example 23, (3R)-3-{5-methyl-2-[trans-4-(trifluoromethyl)cyclohexyl]pyrazolo[1,5-a]pyrimidin-7-yl}piperidine-1-carboximidamide hydrochloride], 0.1 to 1 µM. For `Cc1cc([C@@H]2CCCN(C(C)C)C2)n2nc([C@H]3CC[C@H](C(F)(F)F)CC3)cc2n1` [Example 24, (3R)-3-{5-methyl-2-[trans-4-(trifluoromethyl)cyclohexyl]pyrazolo[1,5-a]pyrimidin-7-yl}-1-(propan-2-yl)piperidine], the EC50 fell in the range of 1 to 10 µM. The value for `Cc1cc([C@H]2CN(S(N)(=O)=O)CCO2)n2nc([C@H]3CC[C@H](C(F)(F)F)CC3)cc2n1` [Example 25, (2R)-2-{5-methyl-2-[trans-4-(trifluoromethyl)cyclohexyl]pyrazolo[1,5-a]pyrimidin-7-yl}morpholine-4-sulfonamide] was less than 0.1 µM. In the case of `Cc1cc([C@H]2CN(C(N)=O)CCO2)n2nc([C@H]3CC[C@H](C(F)(F)F)CC3)cc2n1` [Example 26, (2R)-2-{5-methyl-2-[trans-4-(trifluoromethyl)cyclohexyl]pyrazolo[1,5-a]pyrimidin-7-yl}morpholine-4-carboxamide] it was 0.1 to 1 µM; in that of `Cc1cc([C@@H]2CCCS(=O)(=O)C2)n2nc([C@H]3CC[C@H](C(F)(F)F)CC3)cc2n1` [Example 27, 3-{5-methyl-2-[trans-4-(trifluoromethyl)cyclohexyl]pyrazolo[1,5-a]pyrimidin-7-yl}-1λ^6-thiane-1,1-dione], 0.1 to 1 µM; in that of `Cc1cc(C2OCCN(C)C2=O)n2nc([C@H]3CC[C@H](C(F)(F)F)CC3)cc2n1` (stereo partly drawn) [Example 30, 4-methyl-2-{5-methyl-2-[trans-4-(trifluoromethyl)cyclohexyl]pyrazolo[1,5-a]pyrimidin-7-yl}morpholin-3-one], 1 to 10 µM. The value for `CC(=O)N1CCC[C@@H](c2c(C)c(C)nc3cc([C@H]4CC[C@H](C(F)(F)F)CC4)nn23)C1` [Example 33] was 0.1 to 1 µM. As to `CCc1c(C)nc2cc([C@H]3CC[C@H](C(F)(F)F)CC3)nn2c1[C@]1(C)CCCN(C(C)=O)C1` [Example 34], the EC50 was less than 0.1 µM. In the case of `CCc1c(C)nc2cc([C@H]3CC[C@H](C(F)(F)F)CC3)nn2c1[C@@]1(C)CCCN(C(C)=O)C1` [Example 35] it was less than 0.1 µM; in that of `CC(=O)N1CCC[C@](C)(c2cc(C)nc3cc([C@H]4CC[C@H](C(F)(F)F)CC4)nn23)C1` [Example 36], 1 to 10 µM; in that of `CC(=O)N1CCC[C@](C)(c2c(C)c(C)nc3cc([C@H]4CC[C@H](C(F)(F)F)CC4)nn23)C1` [Example 37], 0.1 to 1 µM. The value for `CC(=O)N1CCCC(c2c(C(C)C)c(C)nc3cc([C@H]4CC[C@H](C(F)(F)F)CC4)nn23)C1` (stereo partly drawn) [Example 40] was less than 0.1 µM.

The record behind these values is US12473293B2, “Pharmacologically active heterocyclic-substituted pyrazolo[1,5-a]pyrimidine derivatives” (Richter Gedeon Nyrt., priority 2020, dated 2025).
